Data: patent publication US20050288377A1, “Use of calcimimetic as an adynamic bone disease related treatment” (priority 2004, published 2005)
Values joined by “and” are separate entries in the source; they are usually repeats but may differ in a detail not shown here. Equal values may be shown once. Where a name gives a salt, the structure may show the parent alone. Read-outs that look alike come from different tables or passages of the source.

Assays:
[1] = system: ESRD subjects; test: Study of ESRD subjects treated with Cinacalcet and HECTOROL (Table 3); format: in vivo, human; conditions: unlabelled summary line over patients 1-11
Text: Table 3 provides the results of a study of several ESRD subjects treated with Cinacalcet and HECTOROL™ (Doxercalciferol synthetic Vitamin D). Pre and post treatment levels of total PTH, 1-84 PTH, 7-84 PTH, calcium, phosphate and alkaline phosphatase are provided together with the pre and post treatment ratio of 1-84 PTH/7-84 PTH and the pre and post treatment product of (calcium) x (phosphate).

[2] = system: parathyroid cancer patients; test: PTH levels and ratio in parathyroid cancer patients receiving Cinacalcet HCl (Table 2); format: in vivo, human; conditions: SCR or D1 visit: prior to Cinacalcet HCl treatment (baseline); hydrochloride
Text: See M. R. Rubin, et al., “A Molecular Form of PTH Distinct From PTH (1-84) is Produced in Parathyroid Carcinoma” (J. Bone & Mineral Metab., forthcoming).

[3] = system: chronic kidney disease patients on dialysis; conditions: product insert; cited from earlier work
[4] = system: 1-84 PTH/7-84 PTH ratio; conditions: cited from earlier work

C[C@@H](NCCCc1cccc(C(F)(F)F)c1)c1cccc2ccccc12 [Cinacalcet HCl]
Post CIP (7-84 PTH) ([1]; post treatment): 342.2 | Post Ca ([1]; post treatment): 8.7 | Post Phos ([1]; post treatment): 5.6 | Post alk phos ([1]; post treatment): 240.5 | Post-CAP (1-84 PTH) ([1]; post treatment): 458.3 | Post-Total (total PTH) ([1]; post treatment): 800.4 | Prot Ca xP ([1]; post treatment): 49.2 | Pre Ca ([1]; pre treatment): 9.5 | Pre Ca xP ([1]; pre treatment): 55.7 | Pre Phos ([1]; pre treatment): 5.9 | Pre alk phos ([1]; pre treatment): 220.2 | Pre-CAP (1-84 PTH) ([1]; pre treatment): 508.8 | Pre-CIP (7-84 PTH) ([1]; pre treatment): 355.3 | Pre-Total (total PTH) ([1]; pre treatment): 864.0 | CPTH/TPTH [2]: 1.5 and 1.6 | risk for developing adynamic bone disease [3]: carries a risk for developing adynamic bone disease

C=C1/C(=C\C=C2/CCC[C@]3(C)[C@@H]([C@H](C)/C=C/[C@H](C)C(C)C)CC[C@@H]23)C[C@@H](O)C[C@@H]1O [Hectarale, Doxercalciferol]
Ca ([4]; 2.5 μgm/dose, Nov. 1 2001 (Ca Nov. 8)): 8.1 mg/dL | PO4 ([4]; 2.5 μgm/dose, Nov. 1 2001 (PO4 Nov.5-7)): 5.7 mg/dL | CAP ([4]; 2.5 μgm/dose, Nov. 1 2001): 1462 pgm/mL | CAP/CIP ([4]; 2.5 μgm/dose, Nov. 1 2001): 6.74 | CIP ([4]; 2.5 μgm/dose, Nov. 1 2001): 217 pgm/mL | Ca × PO4 ([4]; 2.5 μgm/dose, Nov. 1 2001): 46 | Intact PTH ([4]; 2.5 μgm/dose, Nov. 1 2001): 1679 pgm/mL | Ca ([4]; 4 μgm/dose, Aug. 17 2001 (Ca Sept. 21)): 8.3 mg/dL | PO4 ([4]; 4 μgm/dose, Aug. 17 2001 (PO4 Sept. 21)): 7.0 mg/dL | CAP ([4]; 4 μgm/dose, Aug. 17 2001): 1735 pgm/mL | CAP/CIP ([4]; 4 μgm/dose, Aug. 17 2001): 0.95 | CIP ([4]; 4 μgm/dose, Aug. 17 2001): 1824 pgm/mL | Ca × PO4 ([4]; 4 μgm/dose, Aug. 17 2001): 58 | Intact PTH ([4]; 4 μgm/dose, Aug. 17 2001): 3559 pgm/mL
